Measured values as given in ChEMBL document CHEMBL1201861, “Genomics of Drug Sensitity in Cancer screening data, Wellcome Trust Sanger Institute”.

What was measured:
[1] = tested on: HCC1954; test: cells; type: functional, cell-based; details: Homo sapiens;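 further: growth inhibition of human HCC1954 cells, read out with a cell viability assay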
Description: SANGER: Inhibition of human HCC1954 cell growth in a cell viability assay.

[2] = tested on: EFO-27; test: cells; type: functional, cell-based; details: Homo sapiens;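 further: growth inhibition of EFO-27 cells, read out with a cell viability assay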
Description: SANGER: Inhibition of human EFO-27 cell growth in a cell viability assay.

[3] = tested on: SBC-5; test: cells; type: functional, cell-based; details: Homo sapiens;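 further: cell viability assay read-out, IC50 is the concentration that inhibits growth of the cells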
Description: SANGER: Inhibition of human SBC-5 cell growth in a cell viability assay.

[4] = tested on: SCLC-21H; test: cells; type: functional, cell-based; details: Homo sapiens;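 further: growth inhibition of cultured human SCLC-21H cells, read out with a cell viability assay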
Description: SANGER: Inhibition of human SCLC-21H cell growth in a cell viability assay.

[5] = tested on: ChaGo-K-1; test: cells; type: functional, cell-based; details: Homo sapiens;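 further: growth inhibition of ChaGo-K-1 cells, read out with a cell viability assay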
Description: SANGER: Inhibition of human ChaGo-K-1 cell growth in a cell viability assay.

[6] = tested on: CAL-72; test: cells; type: functional, cell-based; details: Homo sapiens;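 further: cell viability assay measuring inhibition of proliferation in the CAL-72 cell line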
Description: SANGER: Inhibition of human CAL-72 cell growth in a cell viability assay.

[7] = tested on: SW756; test: cells; type: functional, cell-based; details: Homo sapiens;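 further: growth inhibition of human SW756 cells, read out with a cell viability assay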
Description: SANGER: Inhibition of human SW756 cell growth in a cell viability assay.

[8] = tested on: EHEB; test: cells; type: functional, cell-based; details: Homo sapiens;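 further: growth inhibition of human EHEB cells, read out with a cell viability assay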
Description: SANGER: Inhibition of human EHEB cell growth in a cell viability assay.

[9] = tested on: COR-L105; test: cells; type: functional, cell-based; details: Homo sapiens
Description: SANGER: Inhibition of human COR-L105 cell growth in a cell viability assay.

[10] = tested on: OE19; test: cells; type: functional, cell-based; details: Homo sapiens;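 further: growth inhibition of OE19 cells, measured through a cell viability read-out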
Description: SANGER: Inhibition of human OE19 cell growth in a cell viability assay.

[11] = tested on: KMS-12-PE; test: cells; type: functional, cell-based; details: Homo sapiens;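 further: growth inhibition of human KMS-12-PE cells, measured with a cell viability assay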
Description: SANGER: Inhibition of human KMS-12-PE cell growth in a cell viability assay.

[12] = tested on: M059J; test: cells; type: functional, cell-based; details: Homo sapiens;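 further: growth inhibition of M059J cells, read out with a cell viability assay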
Description: SANGER: Inhibition of human M059J cell growth in a cell viability assay.

[13] = tested on: SCC-4; test: cells; type: functional, cell-based; details: Homo sapiens;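 further: growth inhibition of human SCC-4 cells, read out as cell viability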
Description: SANGER: Inhibition of human SCC-4 cell growth in a cell viability assay.

[14] = tested on: IGR-1; test: cells; type: functional, cell-based; details: Homo sapiens;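 further: growth inhibition of human IGR-1 cells, read out with a cell viability assay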
Description: SANGER: Inhibition of human IGR-1 cell growth in a cell viability assay.

[15] = tested on: HuO-3N1; test: cells; type: functional, cell-based; details: Homo sapiens;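 further: cell viability readout used to measure how strongly compounds suppress proliferation of human HuO-3N1 cells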
Description: SANGER: Inhibition of human HuO-3N1 cell growth in a cell viability assay.

[16] = tested on: HCC1419; test: cells; type: functional, cell-based; details: Homo sapiens;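 further: growth inhibition of human HCC1419 cells, read out as cell viability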
Description: SANGER: Inhibition of human HCC1419 cell growth in a cell viability assay.

[17] = tested on: A253 cell line; test: cells; type: functional, cell-based; details: Homo sapiens;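 further: growth inhibition of A253 cells, read out with a cell viability assay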
Description: SANGER: Inhibition of human A253 cell growth in a cell viability assay.

[18] = tested on: NCI-H719; test: cells; type: functional, cell-based; details: Homo sapiens;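 further: growth inhibition of the cultured cell line, read out with a viability assay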
Description: SANGER: Inhibition of human NCI-H719 cell growth in a cell viability assay.

[19] = tested on: MHH-CALL-2; test: cells; type: functional, cell-based; details: Homo sapiens;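 further: growth inhibition of the cell line, read out in a cell viability assay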
Description: SANGER: Inhibition of human MHH-CALL-2 cell growth in a cell viability assay.

[20] = tested on: NCI-H1963; test: cells; type: functional, cell-based; details: Homo sapiens;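 further: cell growth inhibition of the human line, determined with a cell viability assay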
Description: SANGER: Inhibition of human NCI-H1963 cell growth in a cell viability assay.

[21] = tested on: L-540; test: cells; type: functional, cell-based; details: Homo sapiens;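 further: growth inhibition of the human L-540 cell line, read out with a viability assay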
Description: SANGER: Inhibition of human L-540 cell growth in a cell viability assay.

[22] = tested on: NCI-H889; test: cells; type: functional, cell-based; details: Homo sapiens;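 further: cell growth inhibition of the cell line, read out with a viability assay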
Description: SANGER: Inhibition of human NCI-H889 cell growth in a cell viability assay.

[23] = tested on: NCI-H1618; test: cells; type: functional, cell-based; details: Homo sapiens;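 further: growth inhibition of human NCI-H1618 cells, measured by a cell viability assay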
Description: SANGER: Inhibition of human NCI-H1618 cell growth in a cell viability assay.

[24] = tested on: SNU-C1; test: cells; type: functional, cell-based; details: Homo sapiens;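 further: growth inhibition of SNU-C1 human cells, read out by a cell viability assay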
Description: SANGER: Inhibition of human SNU-C1 cell growth in a cell viability assay.

[25] = tested on: SW837; test: cells; type: functional, cell-based; details: Homo sapiens;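 further: growth inhibition of SW837 cells, determined with a cell viability assay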
Description: SANGER: Inhibition of human SW837 cell growth in a cell viability assay.

[26] = tested on: NCI-H810; test: cells; type: functional, cell-based; details: Homo sapiens;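 further: IC50 reflects inhibition of cancer cell line growth, read out with a cell viability assay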
Description: SANGER: Inhibition of human NCI-H810 cell growth in a cell viability assay.

[27] = tested on: NCI-H524; test: cells; type: functional, cell-based; details: Homo sapiens;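 further: growth inhibition of human NCI-H524 cells, read out through a cell viability assay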
Description: SANGER: Inhibition of human NCI-H524 cell growth in a cell viability assay.

[28] = tested on: IM-9; test: SANGER: Inhibition of human IM-9 cell growth in a cell viability assay.; type: functional, cell-based
[29] = tested on: SK-N-AS; test: cells; type: functional, cell-based; details: Homo sapiens;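 further: growth inhibition of human SK-N-AS cells, measured with a cell viability assay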
Description: SANGER: Inhibition of human SK-N-AS cell growth in a cell viability assay.

[30] = tested on: SW1573; test: cells; type: functional, cell-based; details: Homo sapiens;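 further: growth inhibition of SW1573 cells, read out with a cell viability assay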
Description: SANGER: Inhibition of human SW1573 cell growth in a cell viability assay.

[31] = tested on: LOUCY; test: cells; type: functional, cell-based; details: Homo sapiens;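 further: growth inhibition of human LOUCY cells, read out with a cell viability assay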
Description: SANGER: Inhibition of human LOUCY cell growth in a cell viability assay.

[32] = tested on: NCI-H1651; test: cells; type: functional, cell-based; details: Homo sapiens;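 further: Read-out is a cell viability assay, with IC50 expressing inhibition of NCI-H1651 cell growth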
Description: SANGER: Inhibition of human NCI-H1651 cell growth in a cell viability assay.

[33] = tested on: NCI-H322M; test: cells; type: functional, cell-based; details: Homo sapiens;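 further: cell viability assay measuring inhibition of growth of human NCI-H322M cells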
Description: SANGER: Inhibition of human NCI-H322M cell growth in a cell viability assay.

[34] = tested on: CHP-126; test: cells; type: functional, cell-based; details: Homo sapiens
Description: SANGER: Inhibition of human CHP-126 cell growth in a cell viability assay.

[35] = tested on: CAL-27; test: cells; type: functional, cell-based; details: Homo sapiens;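 further: Viability-based readout, IC50 reflecting inhibition of CAL-27 cell growth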
Description: SANGER: Inhibition of human CAL-27 cell growth in a cell viability assay.

[36] = tested on: U-698-M; test: cells; type: functional, cell-based; details: Homo sapiens
Description: SANGER: Inhibition of human U-698-M cell growth in a cell viability assay.

[37] = tested on: HOS; test: cells; type: functional, cell-based; details: Homo sapiens;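 further: growth inhibition of human HOS cells, read out with a cell viability assay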
Description: SANGER: Inhibition of human HOS cell growth in a cell viability assay.

[38] = tested on: ABC-1; test: cells; type: functional, cell-based; details: Homo sapiens;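 further: growth inhibition of human ABC-1 cells, read out by a cell viability assay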
Description: SANGER: Inhibition of human ABC-1 cell growth in a cell viability assay.

[39] = tested on: U-251; test: cells; type: functional, cell-based; details: Homo sapiens;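 further: growth inhibition of human U-251 cells, read out through a cell viability assay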
Description: SANGER: Inhibition of human U251 cell growth in a cell viability assay.

[40] = tested on: MC-CAR; test: cells; type: functional, cell-based; details: Homo sapiens;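 further: growth inhibition of the human MC-CAR cell line, read out by a cell viability assay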
Description: SANGER: Inhibition of human MC-CAR cell growth in a cell viability assay.

[41] = tested on: SW948; test: cells; type: functional, cell-based; details: Homo sapiens;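 further: growth inhibition of SW948 cells, read out with a cell viability assay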
Description: SANGER: Inhibition of human SW948 cell growth in a cell viability assay.

[42] = tested on: DG-75; test: cells; type: functional, cell-based; details: Homo sapiens;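 further: growth inhibition of DG-75 cells, read out with a cell viability assay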
Description: SANGER: Inhibition of human DG-75 cell growth in a cell viability assay.

[43] = tested on: D-392MG; test: cells; type: functional, cell-based; details: Homo sapiens
[44] = tested on: SNU-423; test: cells; type: functional, cell-based; details: Homo sapiens
Description: SANGER: Inhibition of human SNU-423 cell growth in a cell viability assay.

[45] = tested on: NCI-H1792; test: cells; type: functional, cell-based; details: Homo sapiens;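 further: growth inhibition of human NCI-H1792 cells, read out as cell viability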
Description: SANGER: Inhibition of human NCI-H1792 cell growth in a cell viability assay.

[46] = tested on: HT1197; test: cells; type: functional, cell-based, HT-1197; details: Homo sapiens
Description: SANGER: Inhibition of human HT-1197 cell growth in a cell viability assay.

[47] = tested on: A-431; test: cells; type: functional, cell-based; details: Homo sapiens;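 further: growth inhibition of A-431 cells, determined with a cell viability read-out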
Description: SANGER: Inhibition of human A431 cell growth in a cell viability assay.

[48] = tested on: S-117; test: cells; type: functional, cell-based; details: Homo sapiens
Description: SANGER: Inhibition of human S-117 cell growth in a cell viability assay.

[49] = tested on: HCC1395; test: cells; type: functional, cell-based; details: Homo sapiens;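 further: growth inhibition of HCC1395 cells, read out by a cell viability assay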
Description: SANGER: Inhibition of human HCC1395 cell growth in a cell viability assay.

[50] = tested on: HOP-92; test: cells; type: functional, cell-based; details: Homo sapiens;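 further: cell viability readout, with IC50 reflecting inhibition of HOP-92 cell growth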
Description: SANGER: Inhibition of human HOP-92 cell growth in a cell viability assay.

[51] = tested on: LoVo; test: cells; type: functional, cell-based; details: Homo sapiens;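 further: growth inhibition of human LoVo cells, read out with a cell viability assay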
Description: SANGER: Inhibition of human LoVo cell growth in a cell viability assay.

[52] = tested on: NCI-H1417; test: cells; type: functional, cell-based; details: Homo sapiens;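 further: human NCI-H1417 cells, growth inhibition determined with a cell viability readout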
Description: SANGER: Inhibition of human NCI-H1417 cell growth in a cell viability assay.

[53] = tested on: D-542MG; test: cells; type: functional, cell-based; details: Homo sapiens
Description: SANGER: Inhibition of human D-542MG cell growth in a cell viability assay.

[54] = tested on: P31-FUJ; test: cells; type: functional, cell-based; details: Homo sapiens;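 further: growth inhibition of P31-FUJ cells, read out with a viability assay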
Description: SANGER: Inhibition of human P31-FUJ cell growth in a cell viability assay.

[55] = tested on: LCLC-103H cell line; test: cells; type: functional, cell-based; details: Homo sapiens
Description: SANGER: Inhibition of human LCLC-103H cell growth in a cell viability assay.

[56] = tested on: HPAF-II; test: cells; type: functional, cell-based; details: Homo sapiens;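 further: growth inhibition of HPAF-II cells, read out with a cell viability assay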
Description: SANGER: Inhibition of human HPAF-II cell growth in a cell viability assay.

[57] = tested on: SN12C; test: cells; type: functional, cell-based; details: Homo sapiens
Description: SANGER: Inhibition of human SN12C cell growth in a cell viability assay.

[58] = tested on: NCI-H187; test: cells; type: functional, cell-based; details: Homo sapiens
Description: SANGER: Inhibition of human NCI-H187 cell growth in a cell viability assay.

[59] = tested on: LB996-RCC; test: cells; type: functional, cell-based; details: Homo sapiens
Description: SANGER: Inhibition of human LB996-RCC cell growth in a cell viability assay.

## C/C=C(/C)C(=O)O[C@H]1C(C)=C2[C@H]([C@@H]1OC(=O)CCCCCCC)[C@@](C)(OC(C)=O)C[C@H](OC(=O)CCC)[C@@]1(O)[C@H]2OC(=O)[C@@]1(C)O [THAPSIGARGIN]
[1]
  IC50: 24.9 nM
[2]
  IC50: 25.4 nM
[3]
  IC50: 8.08 nM
[4]
  IC50: 1.69 nM
[5]
  IC50: 3.29 nM
[6]
  IC50: 2.27 nM
[7]
  IC50: 12.7 nM
[8]
  IC50: 94.1 nM
[9]
  IC50: 11.5 nM
[10]
  IC50: 36.5 nM
[11]
  IC50: 297 nM
[12]
  IC50: 10.8 nM
[13]
  IC50: 10.4 nM
[14]
  IC50: 10.5 nM
[15]
  IC50: 43.2 nM
[16]
  IC50: > 512 nM
[17]
  IC50: 1.73 nM
[18]
  IC50: > 512 nM
[19]
  IC50: 468 nM
[20]
  IC50: 66.2 nM
[21]
  IC50: 75.2 nM
[22]
  IC50: > 512 nM
[23]
  IC50: 10.1 nM
[24]
  IC50: > 512 nM
[25]
  IC50: 1.66 nM
[26]
  IC50: 7.14 nM
[27]
  IC50: 70 nM
[28]
  IC50: > 512 nM
[29]
  IC50: 48.5 nM
[30]
  IC50: 31.1 nM
[31]
  IC50: 29.9 nM
[32]
  IC50: 41.3 nM
[33]
  IC50: > 512 nM
[34]
  IC50: 29.8 nM
[35]
  IC50: < 2 nM
[36]
  IC50: 77.4 nM
[37]
  IC50: 1.96 nM
[38]
  IC50: 3.19 nM
[39]
  IC50: < 2 nM
[40]
  IC50: 24.4 nM
[41]
  IC50: > 512 nM
[42]
  IC50: > 512 nM
[43]
  IC50: > 512 nM
[44]
  IC50: < 2 nM
[45]
  IC50: 0.526 nM
[46]
  IC50: > 512 nM
[47]
  IC50: 4.11 nM
[48]
  IC50: 40.9 nM
[49]
  IC50: 3.15 nM
[50]
  IC50: 5.26 nM
[51]
  IC50: 10.4 nM
[52]
  IC50: > 512 nM
[53]
  IC50: 6.93 nM
[54]
  IC50: 72.1 nM
[55]
  IC50: < 2 nM
[56]
  IC50: 61.9 nM
[57]
  IC50: 16.6 nM
[58]
  IC50: 53.2 nM
[59]
  IC50: 31.3 nM

## CC(C)=CC[C@@H](O)C1=CC(=O)c2c(O)ccc(O)c2C1=O [SHIKONIN]
[1]
  IC50: 902 nM
[2]
  IC50: 330 nM
[3]
  IC50: 215 nM
[4]
  IC50: 1360 nM
[5]
  IC50: 657 nM
[6]
  IC50: 1010 nM
[7]
  IC50: 762 nM
[8]
  IC50: 2090 nM
[9]
  IC50: 230 nM
[10]
  IC50: 807 nM
[11]
  IC50: 559 nM
[12]
  IC50: 134 nM
[13]
  IC50: 441 nM
[14]
  IC50: 154 nM
[15]
  IC50: 4430 nM
[16]
  IC50: 1690 nM
[17]
  IC50: < 62.5 nM
[18]
  IC50: 2610 nM
[19]
  IC50: 715 nM
[20]
  IC50: 100 nM
[21]
  IC50: 4900 nM
[22]
  IC50: > 16000 nM
[23]
  IC50: 2020 nM
[24]
  IC50: > 16000 nM
[25]
  IC50: > 16000 nM
[26]
  IC50: 503 nM
[27]
  IC50: > 16000 nM
[28]
  IC50: 3410 nM
[29]
  IC50: 1790 nM
[30]
  IC50: 372 nM
[31]
  IC50: 586 nM
[32]
  IC50: > 16000 nM
[33]
  IC50: > 16000 nM
[34]
  IC50: 695 nM
[35]
  IC50: > 16000 nM
[36]
  IC50: 301 nM
[37]
  IC50: 186 nM
[38]
  IC50: 707 nM
[39]
  IC50: 1430 nM
[40]
  IC50: 814 nM
[41]
  IC50: 11900 nM
[42]
  IC50: 1170 nM
[43]
  IC50: 915 nM
[44]
  IC50: 163 nM
[45]
  IC50: > 16000 nM
[46]
  IC50: 276 nM
[47]
  IC50: 107 nM
[48]
  IC50: 387 nM
[49]
  IC50: 15700 nM
[50]
  IC50: 2010 nM
[51]
  IC50: 1340 nM
[52]
  IC50: 816 nM
[53]
  IC50: 581 nM
[54]
  IC50: 2070 nM
[55]
  IC50: 346 nM
[56]
  IC50: 1270 nM
[57]
  IC50: 1760 nM
[58]
  IC50: 2360 nM
[59]
  IC50: > 16000 nM
